Columns and labels:
[1] = tested on: Proteus mirabilis; experiment: MIC assay; type: cell-based; conditions: Prot. mirabilis isolate NP405
[2] = tested on: Prot. mirabilis; experiment: Minimal bactericidal concentration (MBC) assay; type: cell-based, Proteus mirabilis; conditions: Prot. mirabilis isolate NP405
Description: (§1) Minimal bactericidal concentration (MBC) assay—Overnight-grown MIC plates, prepared as described in Example 16, were evaluated to determine the MIC. Culture was then sampled from wells at and near the MIC using sterile inoculating loops, and transferred to fresh MHA plates to determine if viable bacteria remained. […] The MBC was determined as the well in the MIC plate which contained the lowest concentration of silver yielding no bacterial growth on the MHA plate.

[3] = tested on: Staph. aureus; experiment: Minimal bactericidal concentration (MBC) assay; type: cell-based, Staphylococcus aureus
Description: as §1

[4] = tested on: Ps. aeruginosa; experiment: Minimal bactericidal concentration (MBC) assay; type: cell-based, Pseudomonas aeruginosa
Description: as §1

[5] = tested on: Klebsiella pneumoniae; experiment: MIC assay; type: cell-based
[6] = tested on: K. pneumoniae; experiment: Minimal bactericidal concentration (MBC) assay; type: cell-based, Klebsiella pneumoniae
Description: as §1

[7] = tested on: B dolosa; experiment: Minimal bactericidal concentration (MBC) assay; type: cell-based, Burkholderia dolosa
Description: as §1

[8] = tested on: Streptococcus pneumoniae; experiment: MIC assay; type: cell-based; conditions: solutions in 0.1 M lactate buffer pH 4.0
[9] = tested on: Pseudomonas aeruginosa; experiment: MIC assay; type: cell-based; conditions: for NP212 MIC: P. aeruginosa isolate NP212; for NP213 MIC: P. aeruginosa isolate NP213; for NP214 MIC: P. aeruginosa isolate NP 214
[10] = tested on: Enterobacter cloacae; experiment: MIC assay; type: cell-based; conditions: Enterobacter cloacae
[11] = tested on: Escherichia coli; experiment: MIC assay; type: cell-based
[12] = tested on: Ser. marcescens; experiment: Minimal bactericidal concentration (MBC) assay; type: cell-based, Serratia marcescens
Description: as §1

[13] = tested on: C. freundii; experiment: Minimal bactericidal concentration (MBC) assay; type: cell-based, Citrobacter freundii; conditions: C. freundii isolate NP410
Description: as §1

[14] = tested on: E. coli; experiment: Minimal bactericidal concentration (MBC) assay; type: cell-based, Escherichia coli
Description: as §1

[15] = tested on: Staph epidermidis; experiment: Minimal bactericidal concentration (MBC) assay; type: cell-based, Staphylococcus epidermidis
Description: as §1

[16] = tested on: Strep. pyogenes; experiment: Minimal bactericidal concentration (MBC) assay; type: cell-based, Streptococcus pyogenes
Description: as §1

[17] = tested on: Staphylococcus aureus; experiment: MIC assay; type: cell-based; conditions: for NP101 MIC: Staph aureus isolate NP101; for NP102 MIC: Staph aureus isolate NP102; for NP103 MIC: Staph aureus isolate NP103
[18] = tested on: Burkholderia dolosa; experiment: MIC assay; type: cell-based
[19] = tested on: Citrobacter freundii; experiment: MIC assay; type: cell-based; conditions: C. freundii isolate NP410
[20] = tested on: Burkholderia multivorans; experiment: MIC assay; type: cell-based
[21] = tested on: Serratia marcescens; experiment: MIC assay; type: cell-based
[22] = tested on: Staphylococcus epidermidis; experiment: MIC assay; type: cell-based
[23] = tested on: Streptococcus pyogenes; experiment: MIC assay; type: cell-based
[24] = Staph. aureus ATCC type strain 6538
[25] = Staph. aureus ATCC type strain 700699
[26] = Ps. aeruginosa ATCC type strain 27317
[27] = K. pneumoniae isolate NP403 (first listing)
[28] = K. pneumoniae isolate NP403 (second listing)
[29] = formulation type Water/Lecithin
[30] = Ser. marcescens isolate NP402 (first listing)
[31] = Ser. marcescens isolate NP402 (second listing)
[32] = Ser. marcescens isolate NP408 (first listing)
[33] = Ser. marcescens isolate NP408 (second listing)
[34] = Staph epidermidis ATCC type strain 12228
[35] = Staph epidermidis isolate NP136

Structure (SMILES): O=[N+]([O-])[O-].[Ag+] [AgNO3, silver nitrate]
- MIC [1]: 6 parts silver per million
- MBC [2]: 13 parts silver per million
- MBC [3, 24]: 6 parts silver per million
- MBC [3, 25]: 6 parts silver per million
- MBC ([3]; Staph. aureus isolate NP101): 11 parts silver per million
- MBC ([3]; Staph. aureus isolate NP102): 6 parts silver per million
- MBC ([3]; Staph. aureus isolate NP103): 6 parts silver per million
- MBC [4, 26]: 3 parts silver per million
- MBC ([4]; Ps. aeruginosa isolate NP201): 3 parts silver per million
- MBC ([4]; Ps. aeruginosa isolate NP204): 3 parts silver per million
- MBC ([4]; Ps. aeruginosa isolate NP206): 1 parts silver per million
- MIC ([5]; K. pneumoniae isolate NP401): 3 parts silver per million
- MIC [5, 27]: 6 parts silver per million
- MIC [5, 28]: 6 parts silver per million
- MIC ([5]; K. pneumoniae isolate NP406): 1 parts silver per million
- MIC ([5]; Klebsiella pneumoniae, aerobic conditions (+)): 3 µg/mL
- MIC ([5]; Klebsiella pneumoniae, anaerobic conditions (Aerobic −)): 3 µg/mL
- MBC ([6]; K. pneumoniae isolate NP401): 3 parts silver per million
- MBC [6, 27]: 6 parts silver per million
- MBC [6, 28]: 3 parts silver per million
- MBC ([6]; K. pneumoniae isolate NP406): 1 parts silver per million
- MBC ([7]; B dolosa isolate A3): 3 parts silver per million
- MBC ([7]; B dolosa isolate A4): 2 parts silver per million
- MIC ([8]; S. pneumo (clin 314)): 11 µg/mL
- MIC ([8]; S. pneumo (clin 315)): 21 µg/mL
- MIC ([9]; P. aerug (ATCC), solutions in 0.1 M lactate buffer pH 4.0): 3 µg/mL
- MIC ([9]; P. aerug. (clin.), solutions in 0.1 M lactate buffer pH 4.0): 3 µg/mL
- NP212 MIC ([9]; formulation type Lactate): 2 ppm
- NP212 MIC [9, 29]: 3 ppm
- NP212 MIC ([9]; formulation type Water/PVA): 3 ppm
- NP213 MIC ([9]; formulation type Lactate): 1 ppm
- NP213 MIC [9, 29]: 1 ppm
- NP213 MIC ([9]; formulation type Water/PVA): 1 ppm
- NP214 MIC ([9]; formulation type Lactate): 1 ppm
- NP214 MIC [9, 29]: 1 ppm
- NP214 MIC ([9]; formulation type Water/PVA): 3 ppm
- MIC ([9]; Ps. aeruginosa ATCC type strain 9027): 1 parts silver per million
- MIC [9, 26]: 2 parts silver per million
- MIC ([9]; Ps. aeruginosa isolate NP201): 1 parts silver per million
- MIC ([9]; Ps. aeruginosa isolate NP204): 1 parts silver per million
- MIC ([9]; Ps. aeruginosa isolate NP206): 1 parts silver per million
- MIC ([10]; aerobic conditions (+)): 13 µg/mL
- MIC ([10]; anaerobic conditions (Aerobic −)): 25 µg/mL
- MIC ([11]; E. coli (ATCC), solutions in 0.1 M lactate buffer pH 4.0): 3 µg/mL
- MIC ([11]; E. coli ATCC type strain 8739): 0.4 parts silver per million
- MIC ([11]; E. coli ATCC type strain 43745): 1 parts silver per million
- MIC ([11]; E. coli isolate NP412): 1 parts silver per million
- MBC [12, 30]: 6 parts silver per million
- MBC [12, 31]: 6 parts silver per million
- MBC [12, 32]: 6 parts silver per million
- MBC [12, 33]: 11 parts silver per million
- MBC [13]: 3 parts silver per million
- MBC ([14]; E. coli ATCC type strain 8739): 0.4 parts silver per million
- MBC ([14]; E. coli ATCC type strain 43745): 0.4 parts silver per million
- MBC ([14]; E. coli isolate NP412): 1 parts silver per million
- MBC [15, 34]: 3 parts silver per million
- MBC [15, 35]: 3 parts silver per million
- MBC ([16]; Strep. pyogenes isolate NP303): 10 parts silver per million
- MBC ([16]; Strep. pyogenes isolate NP304): 21 parts silver per million
- MBC ([16]; Strep. pyogenes isolate NP306): 21 parts silver per million
- MIC ([17]; S. aureus (ATCC), solutions in 0.1 M lactate buffer pH 4.0): 11 µg/mL
- MIC ([17]; S. aureus (clin.), solutions in 0.1 M lactate buffer pH 4.0): 5 µg/mL
- NP101 MIC ([17]; formulation type Lactate): 9 ppm
- NP101 MIC [17, 29]: 11 ppm
- NP101 MIC ([17]; formulation type Water/PVA): 11 ppm
- NP102 MIC ([17]; formulation type Lactate): 9 ppm
- NP102 MIC [17, 29]: 11 ppm
- NP102 MIC ([17]; formulation type Water/PVA): 11 ppm
- NP103 MIC ([17]; formulation type Lactate): 9 ppm
- NP103 MIC [17, 29]: 11 ppm
- NP103 MIC ([17]; formulation type Water/PVA): 11 ppm
- MIC [17, 24]: 6 parts silver per million
- MIC [17, 25]: 3 parts silver per million
- MIC ([17]; Staph. aureus isolate NP101): 6 parts silver per million
- MIC ([17]; Staph. aureus isolate NP102): 6 parts silver per million
- MIC ([17]; Staph. aureus isolate NP103): 6 parts silver per million
- MIC ([18]; B dolosa isolate A3): 2 parts silver per million
- MIC ([18]; B dolosa isolate A4): 2 parts silver per million
- MIC [19]: 3 parts silver per million
- MIC ([20]; B. multivorans isolate B1): 3 parts silver per million
- MIC ([20]; B. multivorans isolate B2): 3 parts silver per million
- MIC ([20]; B. multivorans isolate B4): 2 parts silver per million
- MIC [21, 30]: 6 parts silver per million
- MIC [21, 31]: 6 parts silver per million
- MIC [21, 32]: 6 parts silver per million
- MIC [21, 33]: 11 parts silver per million
- MIC ([21]; Serratia marcescens, aerobic conditions (+)): 6 µg/mL
- MIC ([21]; Serratia marcescens, anaerobic conditions (Aerobic −)): 13 µg/mL
- MIC ([22]; S. epiderm (ATCC), solutions in 0.1 M lactate buffer pH 4.0): 3 µg/mL
- MIC [22, 34]: 3 parts silver per million
- MIC [22, 35]: 3 parts silver per million
- MIC ([23]; S. pyog (clin. 303), solutions in 0.1 M lactate buffer pH 4.0): 3 µg/mL
- MIC ([23]; S. pyog (clin. 304), solutions in 0.1 M lactate buffer pH 4.0): 5 µg/mL
- MIC ([23]; Strep. pyogenes isolate NP303): 3 parts silver per million
- MIC ([23]; Strep. pyogenes isolate NP304): 6 parts silver per million
- MIC ([23]; Strep. pyogenes isolate NP306): 6 parts silver per million
